Marks after values point to notes of the source that are not given here. Numbered stars: 1 amine (or outer) side, 2 acyl side, 3 side chain; on linkers, the order of the positions; unused ones are H or OH. Square brackets hold non-standard residues; d marks the D form. Side chains are listed from the residue outwards. * marks the point of attachment. C20 diacid = O=C(O)CCCCCCCCCCCCCCCCCCC(=O)*; C18 diacid = O=C(O)CCCCCCCCCCCCCCCCC(=O)*; C16 diacid = O=C(O)CCCCCCCCCCCCCCC(=O)*; γGlu = O=C(O)[C@H](CCC(=O)[*:2])N[*:1]; AEEA = NCCOCCOCC(=O)O; Aib = CC(C)(N)C(=O)O

The values below come from patent US20260174875A1 (Novo Nordisk A/S, priority 2023, published 2026).

The subject of series [1] is Male Sprague Dawley (SD) rats. The experiment in a line: Efficacy testing on appetite: acute food intake in ad libitum fed normal weight rats. The format is in vivo, rat. Conditions: for Food intake (relative to vehicle) Day 1: day 1 [0-24 hours]; for Food intake (relative to vehicle) Day 2: day 2 [24-48 hours]; for Food intake (relative to vehicle) Day 3: day 3 [48-72 hours]. The source says: Male Sprague Dawley (SD) rats from Taconic, Denmark were used for the acute food intake experiments, wherein the principles of laboratory animal care were followed.
The rats arrived at least 10-14 days before the start of the experiment to allow acclimatization to experimental settings. During this period, the animals were handled (fixation by restrain in neck skin) at least 2 times. Immediately upon arrival, rats were changed to a reversed light cycle (dark from 11 am-11 pm) and were transferred to an automated food intake measuring system (HM2 system, MBRose; Faaborg, Denmark). […] To enable recording of individual food intake, rats were ID chipped. Three rats were housed in each cage. During the acclimatization period, in which the rats get used to the new light cycle and diet (LF 10% (D12450B), from Research Diets Inc.), the animals had free access to food and water. Since rats are normally active and consume most of their daily calories during the dark period, rats were dosed in the morning right before lights were turned off. Such a set-up results in the lowest data variation and highest test sensitivity. […] In each cage there were animals from three different treatment groups (to eliminate potential cage effects (e.g. cage malfunction) on primary readout: food intake). The rats were dosed once subcutaneously (s.c.) with the peptide of interest according to body weight (10 or 30 nmol/kg) in vehicle (0.5 ml/kg) using a NovoPen® (Novo Nordisk, Bagsvæed, Denmark).
The compounds of the invention were formulated (20 or 60 nmol/ml) in the following vehicle: 8 mM phosphate; 250 mM glycerol; 0.007% polysorbate 20, pH 7.4.
After dosing, the rats were returned to their home cages, where they continued to have ad libitum access to chow and water. The food consumption was recorded individually and continuously by the HM2 system from 0-72 h after test compound administration. Data obtained by the HM-2 system were stored in a HMBase SQL database (Firebird® relational database management system) and were processed by HM2Lab software (MBRose; Faaborg, Denmark) installed in an embedded computer. The feeding system is a highly sensitive system with a load resolution of 0.001 g.

Series [2] is described as follows: Chemical stability assessment in formulation (UPLC-UV-MS purity loss at 37° C.). The class given is physicochemical. The following applies: 8 mM phosphate buffer pH 7.4, 1 mg/mL, 2 weeks. In short, it runs like this:
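Peptides at target 1 mg/mL in 8 mM phosphate buffer, pH adjusted to 7.4, incubated in capped vials at 37° C. and sampled over 2 weeks, frozen until analysis. Purity followed by UPLC-UV-MS with a 0.1% formic acid water/acetonitrile gradient.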

As for “H[Aib]HGTFTSDYSILLEEQAAREFIEWLLAGGPSK([AEEA-AEEA-γGlu-C16 diacid])GEASELSTAALGRLSAELHRLATLPRTETGSGSP-NH2 [Compound 17]”, in series [1] (single dose 10 nmol/kg), the “Food intake (relative to vehicle) Day 1” value is −84%, the “Food intake (relative to vehicle) Day 2” value is −78% and the “Food intake (relative to vehicle) Day 3” value is recorded as −11%. Also, the “Purity loss per week at 37° C.” value in series [2] was 4.2%.
“H[Aib]HGTFTSDYSILLEEQAAREFIEWLLAGGPSK([AEEA-AEEA-γGlu-C16 diacid])GEASQLSTAALGRLSAELHRLADLPRTETGSGSP-NH2 [Compound 62]”: in series [1] (single dose 10 nmol/kg), the “Food intake (relative to vehicle) Day 1” value was −74%, the “Food intake (relative to vehicle) Day 2” value is given as −42% and the “Food intake (relative to vehicle) Day 3” value is given as −13%. The “Purity loss per week at 37° C.” value in series [2] turned out to be 3.0%.
As for “H[Aib]HGTFTSDYSILLEEQAAREFIEWLLAGGPSK([AEEA-AEEA-γGlu-C18 diacid])GAPPPSGGGGASELSTAALGRLSAELHRLATLPRTETGSGSP-NH2 [Compound 14]”, in series [1] (single dose 10 nmol/kg), the “Food intake (relative to vehicle) Day 1” value is −78%, the “Food intake (relative to vehicle) Day 2” value is −85% and the “Food intake (relative to vehicle) Day 3” value was −32%.
As for “H[Aib]HGTFTSDYSILLEEQAAREFIEWLLAGGPSK([AEEA-AEEA-γGlu-C18 diacid])GEASHLSTAQTARLSAELHELATLPRTETGSGSP-NH2 [Compound 36]”, in series [1] (single dose 10 nmol/kg), the “Food intake (relative to vehicle) Day 1” value is −44%, the “Food intake (relative to vehicle) Day 2” value is −45% and the “Food intake (relative to vehicle) Day 3” value was −3%.
“H[Aib]HGTFTSDYSILLEEQAAREFIEWLLAGGPSK([AEEA-AEEA-γGlu-C18 diacid])GEASQLSTAALGRLSAELHTLATLPRTETGSGSP-NH2 [Compound 63]”: in series [1] (single dose 10 nmol/kg), the “Food intake (relative to vehicle) Day 1” value was −79%, the “Food intake (relative to vehicle) Day 2” value is −80% and the “Food intake (relative to vehicle) Day 3” value is given as −17%. Also, the “Purity loss per week at 37° C.” value in series [2] was determined as 3.7%.
As to “H[Aib]HGTFTSDYSILLEEQAAREFIEWLLAGGPSRGEASHLSTAQTQRLSAELHK([AEEA-AEEA-γGlu-C18 diacid])LATLPRTETGSGSP-NH2 [Compound 69]”, in series [1] (single dose 10 nmol/kg), the “Food intake (relative to vehicle) Day 1” value is reported as −81%, the “Food intake (relative to vehicle) Day 2” value is recorded as −68% and the “Food intake (relative to vehicle) Day 3” value was −6%.
Consider “H[Aib]HGTFTSDYSILLEEQAAREFIEWLLAGGPSSGAGQAPGQAPGASHLSTAQTQRLSAK([AEEA-AEEA-γGlu-C18 diacid])LHRLATLPRTETGSGSP-NH2 [Compound 78]”, for which, in series [1] (single dose 10 nmol/kg), the “Food intake (relative to vehicle) Day 1” value is reported as −96%, the “Food intake (relative to vehicle) Day 2” value is on record as −57% and the “Food intake (relative to vehicle) Day 3” value is given as −3%. Also, the “Purity loss per week at 37° C.” value in series [2] is 3.5%.
As for “H[Aib]HGTFTSDYSILLEEQAAREFIEWLLAGGPSSGEASHLSTAALGRLSAELHRLK([AEEA-AEEA-γGlu-C18 diacid])TLPRTETGSGSP-NH2 [Compound 89]”, in series [1] (single dose 10 nmol/kg), the “Food intake (relative to vehicle) Day 1” value is −93%, the “Food intake (relative to vehicle) Day 2” value is −78% and the “Food intake (relative to vehicle) Day 3” value is reported as −28%.
With “H[Aib]HGTFTSDYSILLEEQAAREFIEWLLAGGPSSGEASHLSTAALGRLSAK([AEEA-AEEA-γGlu-C18 diacid])LHRLATLPRTETGSGSP-NH2 [Compound 87]”, in series [1] (single dose 10 nmol/kg), the “Food intake (relative to vehicle) Day 1” value is −91%, the “Food intake (relative to vehicle) Day 2” value was −86% and the “Food intake (relative to vehicle) Day 3” value is listed as −24%.
In the case of “H[Aib]HGTFTSDYSILLEEQAAREFIEWLLAGGPSSGEASHLSTAQTQRLSAK([AEEA-AEEA-γGlu-C18 diacid])LHRLATLPRTETGSGSP-NH2 [Compound 82]”, in series [1] (single dose 10 nmol/kg), the “Food intake (relative to vehicle) Day 1” value is given as −94%, the “Food intake (relative to vehicle) Day 2” value is reported as −73% and the “Food intake (relative to vehicle) Day 3” value was −27%.
As to “Y[Aib]EGTFTSDYSILLEEQAAREFIEWLLAGGPSK([AEEA-AEEA-γGlu-C16 diacid])GAPPPSGGGEASELSTAALGRLSAELHELATLPRTETGSGSP-NH2 [compound 10]”, in series [1] (single dose 10 nmol/kg), the “Food intake (relative to vehicle) Day 1” value is reported as −20* %, the “Food intake (relative to vehicle) Day 2” value is −4% and the “Food intake (relative to vehicle) Day 3” value is on record as −4%.
“Y[Aib]EGTFTSDYSILLEEQAAREFIEWLLAGGPSK([AEEA-AEEA-γGlu-C18 diacid])GEASELSTAALGRLSAELHELATLPRTETGSGSP-NH2 [Compound 26]”: in series [1] (single dose 30 nmol/kg), the “Food intake (relative to vehicle) Day 1” value is recorded as −11%, the “Food intake (relative to vehicle) Day 2” value was −18% and the “Food intake (relative to vehicle) Day 3” value is reported as 0%.
“Y[Aib]EGTFTSDYSILLEEQAAREFIEWLLAGGPSK([AEEA-AEEA-γGlu-C18 diacid])GEASHLSTAQTARLSAELHELATLPRTETGSGSP-NH2 [Compound 35]”: in series [1] (single dose 30 nmol/kg), the “Food intake (relative to vehicle) Day 1” value is −42%, the “Food intake (relative to vehicle) Day 2” value is listed as −18% and the “Food intake (relative to vehicle) Day 3” value is given as −16%. In series [2], the “Purity loss per week at 37° C.” value stood at 0.3%.
For “Y[Aib]EGTFTSDYSILLEEQAAREFIEWLLAGGPSK([AEEA-AEEA-γGlu-C18 diacid])GGQAPGQAPGEASHLSTAQTQRLSAELHELATLPRTETGSGSP-NH2 [Compound 38]”, in series [1] (single dose 10 nmol/kg), the “Food intake (relative to vehicle) Day 1” value is given as −3%, the “Food intake (relative to vehicle) Day 2” value was −19% and the “Food intake (relative to vehicle) Day 3” value came to 1%.
For “Y[Aib]EGTFTSDYSILLEEQAAREFIEWLLAGGPSSGAGQAPGASHLSTAQTQRLSAELHK([AEEA-AEEA-γGlu-C18 diacid])LATLPRTETGSGSP-NH2 [Compound 97]” the same measures were −65%, −82% and −42%.
On to “Y[Aib]EGTFTSDYSILLEEQAAREFIEWLLAGGPSSGAGQAPGQAPGASHLSTAALGRLSAELHK([AEEA-AEEA-γGlu-C18 diacid])LATLPRTETGSGSP-NH2 [Compound 53]”, for which, in series [1] (single dose 10 nmol/kg), the “Food intake (relative to vehicle) Day 1” value was −75%, the “Food intake (relative to vehicle) Day 2” value is recorded as −90% and the “Food intake (relative to vehicle) Day 3” value is recorded as −33%. Moreover, the “Purity loss per week at 37° C.” value in series [2] amounted to 0.8%.
As for “Y[Aib]EGTFTSDYSILLEEQAAREFIEWLLAGGPSSGAGQAPGQAPGASHLSTAQTQRLSAELHRLK([AEEA-AEEA-γGlu-C18 diacid])TLPRTETGSGSP-NH2 [Compound 56]”, in series [1] (single dose 10 nmol/kg), the “Food intake (relative to vehicle) Day 1” value is given as −69%, the “Food intake (relative to vehicle) Day 2” value is reported as −77% and the “Food intake (relative to vehicle) Day 3” value is on record as −10%. Further, in series [2], the “Purity loss per week at 37° C.” value was 0.6%.
As for “Y[Aib]EGTFTSDYSILLEEQAAREFIEWLLAGGPSSGALQAPGQAPLASHLSTAQTQRLSAELHK([AEEA-AEEA-γGlu-C20 diacid])LATLPRTETGSGSP-NH2 [Compound 99]”, in series [1] (single dose 10 nmol/kg), the “Food intake (relative to vehicle) Day 1” value is reported as −69%, the “Food intake (relative to vehicle) Day 2” value is −84% and the “Food intake (relative to vehicle) Day 3” value was −46%.
Regarding “Y[Aib]EGTFTSDYSILLEEQAAREFIEWLLAGGPSSGAPPPSGGGEASHLSTAQTQRLSAK([AEEA-AEEA-γGlu-C18 diacid])LHRLATLPRTETGSGSP-NH2 [Compound 109]”, in series [1] (single dose 10 nmol/kg), the “Food intake (relative to vehicle) Day 1” value is recorded as −85%, the “Food intake (relative to vehicle) Day 2” value was −34% and the “Food intake (relative to vehicle) Day 3” value is given as −28%.
“Y[Aib]EGTFTSDYSILLEEQAAREFIEWLLAGGPSSGAPPPSGGGEASHLSTAQTQRLSAK([AEEA-AEEA-γGlu-C20 diacid])LHRLATLPRTETGSGSP-NH2 [Compound 110]”: in series [1] (single dose 10 nmol/kg), the “Food intake (relative to vehicle) Day 1” value was −75%, the “Food intake (relative to vehicle) Day 2” value is −54% and the “Food intake (relative to vehicle) Day 3” value is listed as −23%.
Take “Y[Aib]EGTFTSDYSILLEEQAAREFIEWLLAGGPSSGEASHLSTAQTQRLSAELHK([AEEA-AEEA-γGlu-C18 diacid])LATLPRTETGSGSP-NH2 [Compound 50]”: in series [1] (single dose 10 nmol/kg), the “Food intake (relative to vehicle) Day 1” value is on record as −54%, the “Food intake (relative to vehicle) Day 2” value was −60% and the “Food intake (relative to vehicle) Day 3” value is −21%. In addition, the “Purity loss per week at 37° C.” value in series [2] came to 0.7%.
Turning to “Y[Aib]EGTFTSDYSILLEEQAAREFIEWLLAGGPSSGEASHLSTAQTQRLSAELHRLK([AEEA-AEEA-γGlu-C18 diacid])TLPRTETGSGSP-NH2 [Compound 80]”, in series [1] (single dose 10 nmol/kg), the “Food intake (relative to vehicle) Day 1” value was −84%, the “Food intake (relative to vehicle) Day 2” value is on record as −78% and the “Food intake (relative to vehicle) Day 3” value is reported as −23%. In series [2], the “Purity loss per week at 37° C.” value was found to be 0.8%.
